Data as given in publication PMC9365994, “Small molecules to regulate the GH/IGF1 axis by inhibiting the growth hormone receptor synthesis” (Frontiers in Endocrinology, 2022).
Entries after “also recorded” stand apart in the source; their conditions may differ. Like-named read-outs stand apart in the source and are kept apart here.

Key:
[1] = test system: phosphorylated fos-GHRct (fos-GHRct/Jak2 signaling); assay: Cell based primary screen: immune fluorescence (anti-GHR, anti-pY, anti-pJak2, anti-pSTAT5) of fos-GHRct-transfected γ2A iJak2 cells; set-up: species or system human; settings: for phosphorylation of STAT5 (pSTAT5) / phosphorylation of fos-pGHRct (pY) / phosphorylation of the active site of Jak2 (p1007/1008): concentration curves, Fig S10
Protocol: Drug handling and cell-based assays are detailed in Supplementary Data 1 , automation. High-Content StratoMineR ([35]). After incubation with the compounds, the cells were fixed and the fluorescence (anti-GHR, anti-pY, anti-pJak2, anti-pSTAT5) was quantitated.
As it was unknown whether the GH/IGF1 axis is druggable, we designed a broad strategy based on our previous studies in which soluble fos-zipped GHR cytosolic tails (fos-GHRct) can serve as signaling complexes if co-expressed with Jak ([32], [39]). Fos-GHRct expressed without Jak2 is immediately degraded by the ubiquitin pathway. Phosphorylated fos-GHRct (fos-pGHRct) detaches from Jak2 and unzips. Only unzipped fos-pGHRct are protected from proteasomal degradation and accumulate in the cell. […] For 6 scenarios the signal will be decreased: (1) inhibition of Jak2 kinase activity, (2) inhibition of fos-GHRct expression, (3) inhibition of the fos-GHRct : Jak2 interaction, (4) increased degradation of fos-pGHRct, (5) increased degradation of Jak2, and (6) dephosphorylation of fos-pGHRct ([32], [39]).
Figure 1 Diagram of the primary screen. […] If fos-GHRct and Jak2 bind via FERM and box-1, Jak2 gets activated and phosphorylates itself, the dimerized fos-GHRct and STAT5b. After phosphorylation of fos-GHRct, Jak2 and STAT5, the complex dissociates. As fos-pGHRct is protease-resistant, it accumulates in the cells. Unphosphorylated fos-GHRct is rapidly degraded. Steady state levels of fos-pGHRct are lower if one of the 6 scenarios is valid. The cell-based assay was performed in γ2A cells carrying inducible Jak2 (iJak2) or binding-deficient iJak2 Y119E (as control) ( Figure 2 ). […]
1. Cell based primary screen
The assay was based on Fos-zippered GHR cytosolic tails (fos-GHRct) subsequently acting […]
Fig S1A. Immune Fluorescence staining of γ2a Fig S1B. Immune Fluorescence staining of γ2a monoclonal cell line stably transfected with an monoclonal cell line stably transfected with an inducible Jak2 WT expression construct. inducible Jak2 Y119E expression construct. aim we used a human fibroblast cell line
From this line we generated doxycycline inducible Jak2 clones, expressing either wild type Jak2 or Y119E mutant Jak2 whose FERM domain does […]
To establish a sensitive test, sufficient […]
control the system, we used fos-GHRct mutated in box-1 or the cell line expressing mutant (Y119E) Jak2. The box-1 motif is the binding site of Jak2 in GHR; mutation of this motif (all four proline into alanine) is known to reduce the binding between GHR and Jak2. In the primary screen we measured 4 different signals: fos-GHRct (anti-GHR), tyrosine phosphorylated fos-GHRct (anti-pY), tyrosine phosphorylated Jak2 (anti-pY or anti- […]
inhibition of either fos-GHRct stabilization or fos-GHRct synthesis, are considered positive.
Immunoblots are not appropriate for high throughput screening. Using fos-GHRct-transfected cells as in Fig. S3 and pY-specific primary antibodies, we developed a high throughput screening assay based on pY-fos-GHRct immune fluorescent detection in 384-well plates with automated microscopy. […]
panel). From left to right: Dapi staining to visualize nuclei, fos-GHRct staining: GHRtails are detected by […]

[2] = test system: MM231 breast cancer cells; assay: MM231 orthotopic xenograft, tumor growth; type: in vivo, mice; settings: 1 and 5 mg/kg, 3 injections per week, 3 weeks
Protocol: Female RAG2^-/-; IL-2Rgc^-/- immune deficient mice ([37]) were purchased from Envigo (Horst, The Netherlands). Orthotopic transplantations, longitudinal tumor measurements and bioluminescence imaging were performed as described ([38]). Mice were treated when tumors reached a volume of >50 mm^3, three times weekly for a period of three weeks with the indicated drug concentrations.
BM001, BM002, and BM003 were used in mice xenografted with MM231 breast cancer cells that are GH-responsive both for growth and drug resistance ([42]–[45]). The cells were orthotopically grafted into the inguinal mammary gland, and drug treatments started when tumors reached a volume of >50 mm^3. We used a treatment regimen of 3 injections per week (1 and 5 mg/kg) during 3 weeks (9 mice/group) ( Figure 6 ). Animals were killed when tumor volume exceeded 150 mm^3 or mice presented lung metastasis upon bioluminescence imaging measurements. […] Drug withdrawal effects were not studied until now. […] We observed no adverse side effects neither on appetite and behavior ([46]). […] We next assessed if the identified drugs indeed target the GH/IGF1 pathway and consequently, if they result in a decrease in liver weight and IGF1 levels, as observed in GHR knockout mice and Laron patients ([47]).

[3] = Homo sapiens, Figure 4, ranked according inhibitory effects on GHR signaling and/or cell proliferation, read-out: IC50
[4] = Homo sapiens, Table_2.xlsx, second analogue set, read-out: GHR INHIBITORS, BM#, IC50

Row | SMILES | IC50 [1, 3] [nM] | phosphorylation of STAT5 (pSTAT5) [1] | phosphorylation of fos-pGHRct (pY) [1] | phosphorylation of the active site of Jak2 (p1007/1008) [1] | tumor growth / tumor volume (in words) [2] | IC50 [1, 4] [nM] | other results
1 | Cc1nc(N)nc(N)c1C#CC1(c2ccc(Cl)cc2)CC1 [BM004] | 80 | lowered | lowered | lowered | – | – | IC50 ([1]; Homo sapiens, primary screen protocol, 20 h, read-out: IC50, dose-response on pY levels (fos-GHRct, pJak2, pSTAT5)): ~200 nM; IC50, dose-response on pY levels (fos-GHRct, pJak2, pSTAT5) ([1]; primary screen protocol, 20 h): comparable to that of Ruxolitinib
2 | Cc1nc(N)nc(N)c1/C=C/C1(c2ccc(C(F)(F)F)cc2)CC1 [BM001] | 20 to 30 | – | – | – | strong decrease; also recorded: continued to suppress tumor growth; also recorded: inhibit tumor growth; also recorded: tumor regression | – | EC50 ([1]; Homo sapiens, Table_2.xlsx, cell prints EC50, read-out: GHR INHIBITORS, BM#, EC50): 20 to 30 nM
3 | Cc1c(-c2cccc(C#N)c2)ccc2nc(N)nc(N)c12 [BM002] | – | – | – | – | started to increase again; also recorded: inhibit tumor growth | 50 | –
4 | CCOc1cccc2nc(N)nc(N)c12 [BM012] | – | lowered | lowered | lowered | – | – | IC50 ([1]; Homo sapiens, Table_1.xlsx, first analogue set, read-out: GHR INHIBITORS, BM#, (IC50)): 900 nM
5 | N#CC[C@H](C1CCCC1)n1cc(-c2ncnc3[nH]ccc23)cn1 [Ruxolitinib, reference compound] | – | – | – | – | – | – | pY signal at plateau of dose-response [1]: close to zero
6 | COc1cc(CN(C)c2ccc3nc(N)nc(N)c3c2)cc(OC)c1OC [BM003] | – | – | – | – | started to increase again; also recorded: inhibit tumor growth | 50 | –
